How the values were obtained:
Experiment in all cases: combination Emax (second highest fraction inhibited in the dose matrix, 72 h); higher = more inhibition; extreme values may be limits of the assay
[1] = tested on: KE-37 (T-Lymphoblastic Leukemia)
In short: (§1)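 Cell lines grown in DMEM/F12 or RPMI with 10% FBS were plated in 1536-well plates and held 24 hours at 37°C, 5% CO2 before 72 hours of exposure to two-drug dose matrices, with DMSO typically at 0.2%. CellTiter-Glo 2.0 luminescence gave viability, which was converted to inhibition. Vehicle wells were set to 0 and blank wells to 1. Combination Emax is the second-highest inhibition in the matrix, and Bliss excess is the observed combination effect minus the expected EA + EB − EA·EB, where EA and EB are the single-agent effects.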

[2] = tested on: PANC-03-27 (Pancreatic Carcinoma)
In short: as §1

[3] = tested on: SF268 (Low Grade Glioma)
In short: as §1

[4] = tested on: OVMIU (Ovarian Carcinoma)
In short: as §1

[5] = tested on: CAL-62 (Thyroid Gland Carcinoma)
In short: as §1

[6] = tested on: OPM-2 (Plasma Cell Myeloma)
In short: as §1

[7] = tested on: MFE-280 (Endometrial Carcinoma)
In short: as §1

[8] = tested on: LN-229 (Glioblastoma)
In short: as §1

[9] = tested on: HEC-1 (Endometrial Carcinoma)
In short: as §1

[10] = tested on: SK-PN-DW (Other Solid Carcinomas)
In short: as §1

[11] = tested on: IST-MES1 (Mesothelioma)
In short: as §1

[12] = tested on: NCI-H446 (Small Cell Lung Carcinoma)
In short: as §1

[13] = tested on: VAL (B-Cell Non-Hodgkin's Lymphoma)
In short: as §1

[14] = tested on: GB-1 (Glioblastoma)
In short: as §1

[15] = tested on: L-1236 (Hodgkin's Lymphoma)
In short: as §1

[16] = tested on: GP5d (Colorectal Carcinoma)
In short: as §1

[17] = tested on: LXF-289 (Lung Adenocarcinoma)
In short: as §1

[18] = tested on: TE-8 (Esophageal Squamous Cell Carcinoma)
In short: as §1

[19] = tested on: SF539 (Glioblastoma)
In short: as §1

[20] = tested on: LK-2 (Squamous Cell Lung Carcinoma)
In short: as §1

Row | Structure (SMILES) | combination Emax [1] | combination Emax [2] | combination Emax [3] | combination Emax [4] | combination Emax [5] | combination Emax [6] | combination Emax [7] | combination Emax [8] | combination Emax [9] | combination Emax [10] | combination Emax [11] | combination Emax [12] | combination Emax [13] | combination Emax [14] | combination Emax [15] | combination Emax [16] | combination Emax [17] | combination Emax [18] | combination Emax [19] | combination Emax [20]
1 | NC1(C(=O)N[C@@H](CCO)c2ccc(Cl)cc2)CCN(c2ncnc3[nH]ccc23)CC1 [Capivasertib] + CC(C)n1c(=O)n(C)c2cnc3cc(F)c(-c4ccc(OCCCN5CCCCC5)nc4)cc3c21 [AZD1390] (first compound max 10 µM, 7x7, partner max 0.3 µM) | 0.72 | 0.241 | 0.272 | 0.353 | 0.178 | 0.931 | 0.583 | 0.104 | 0.145 | 0.597 | 0.249 | 0.643 | 0.609 | 0.275 | 0.759 | 0.669 | 0.396 | 0.502 | 0.617 | 0.0982
2 | NC1(C(=O)N[C@@H](CCO)c2ccc(Cl)cc2)CCN(c2ncnc3[nH]ccc23)CC1 [Capivasertib] + CCN(CCO)CCCOc1ccc2c(Nc3cc(CC(=O)Nc4cccc(F)c4)[nH]n3)ncnc2c1 [AZD2811] (first compound max 10 µM, 7x7, partner max 1 µM) | 1 | 0.318 | 0.416 | 0.381 | 0.308 | 0.981 | 0.661 | 0.211 | 0.212 | 0.83 | 0.322 | 0.958 | 0.761 | 0.342 | 0.792 | 0.718 | 0.679 | 0.6 | 0.723 | 0.925
3 | NC1(C(=O)N[C@@H](CCO)c2ccc(Cl)cc2)CCN(c2ncnc3[nH]ccc23)CC1 [Capivasertib] + COc1nnc2ccc(N3CCC(c4ccc(OCCN5CCN(C)C(=O)[C@H]5C)cc4)CC3)nn12 [AZD5153] (first compound max 10 µM, 7x7, partner max 1 µM) | 0.905 | 0.307 | 0.488 | 0.665 | 0.751 | 1 | 0.608 | 0.344 | 0.688 | 0.74 | 0.45 | 0.97 | 0.806 | 0.48 | 1 | 0.873 | 0.811 | 0.582 | 0.707 | 0.422
4 | NC1(C(=O)N[C@@H](CCO)c2ccc(Cl)cc2)CCN(c2ncnc3[nH]ccc23)CC1 [Capivasertib] + C[C@@H]1COCCN1C2=NC(=NC(=C2)C3(CC3)[S@](=N)(=O)C)C4=C5C=CNC5=NC=C4 [AZD6738] (first compound max 10 µM, 7x7, partner max 10 µM) | 0.992 | 0.521 | 0.644 | 0.62 | 0.784 | 1 | 0.636 | 0.597 | 0.347 | 0.925 | 0.522 | 0.904 | 0.831 | 0.563 | 0.818 | 0.829 | 0.778 | 0.706 | 0.879 | 0.675
5 | NC1(C(=O)N[C@@H](CCO)c2ccc(Cl)cc2)CCN(c2ncnc3[nH]ccc23)CC1 [Capivasertib] + Cn1cnc2c(F)c(Nc3ccc(Br)cc3Cl)c(C(=O)NOCCO)cc21 [Selumetinib] (first compound max 10 µM, 7x7, partner max 10 µM) | 0.707 | 0.517 | 0.315 | 0.585 | 0.557 | 1 | 0.68 | 0.484 | 0.239 | 0.597 | 0.366 | 0.657 | 0.607 | 0.588 | 0.844 | 0.807 | 0.62 | 0.624 | 0.68 | 0.467
6 | COc1cccc2c1C(=O)c1c(O)c3c(c(O)c1C2=O)C[C@@](O)(C(=O)CO)C[C@@H]3O[C@H]1C[C@H](N)[C@H](O)[C@H](C)O1 [Doxorubicin] + Cc1cc2ncnn2cc1Nc1ncc2c(n1)n(C1CCOCC1)c(=O)n2C [AZD7648] (first compound max 1 µM, 7x7, partner max 10 µM) | 1 | 0.686 | 0.538 | 0.861 | 0.817 | 0.845 | 0.835 | 0.609 | 0.367 | 0.814 | 0.767 | 0.923 | 1 | 0.418 | 0.682 | 0.693 | 0.4 | 0.774 | 0.934 | 0.632
7 | COc1cc2ncnc(Nc3ccc(F)c(Cl)c3)c2cc1OCCCN1CCOCC1 [Gefitinib] + CC(C)n1c(=O)n(C)c2cnc3cc(F)c(-c4ccc(OCCCN5CCCCC5)nc4)cc3c21 [AZD1390] (first compound max 10 µM, 7x7, partner max 0.3 µM) | 0.357 | 0.373 | 0.155 | 0.532 | 0 | 0.203 | 0.246 | 0.0879 | 0.0663 | 0.184 | 0.17 | 0.314 | 0.527 | 0.0404 | 0.254 | 0.281 | 0.0907 | 0.225 | 0.143 | 0.2
8 | CS(=O)(=O)CCNCc1ccc(-c2ccc3ncnc(Nc4ccc(OCc5cccc(F)c5)c(Cl)c4)c3c2)o1 [Lapatinib] + C[C@@H](Oc1cc(-c2cnn(C3CCNCC3)c2)cnc1N)c1c(Cl)ccc(F)c1Cl [Crizotinib] (first compound max 10 µM, 7x7, partner max 10 µM) | 0.975 | 0.835 | 0.902 | 0.969 | 0.776 | 0.944 | 0.88 | 0.334 | 0.182 | 0.938 | 0.686 | 0.965 | 0.808 | 0.843 | 0.984 | 0.979 | 1 | 0.71 | 0.937 | 0.888
9 | CC(=O)c1c(C)c2cnc(Nc3ccc(N4CCNCC4)cn3)nc2n(C2CCCC2)c1=O [Palbociclib] + CC1(C)CCC(CN2CCN(c3ccc(C(=O)NS(=O)(=O)c4ccc(NCC5CCOCC5)c([N+](=O)[O-])c4)c(Oc4cnc5[nH]ccc5c4)c3)CC2)=C(c2ccc(Cl)cc2)C1 [Venetoclax] (first compound max 10 µM, 7x7, partner max 1 µM) | 0.776 | 0.131 | 0.254 | 0.149 | 0.151 | 0.38 | 0.0835 | 0.0912 | 0.0102 | 0.257 | 0.253 | 0.462 | 0.997 | 0.15 | 0.611 | 0.31 | 0.225 | 0.286 | 0.262 | 0.102
10 | CC(=O)c1c(C)c2cnc(Nc3ccc(N4CCNCC4)cn3)nc2n(C2CCCC2)c1=O [Palbociclib] + Cc1c2c(nn1C)CSCc1cc(n(C)n1)CSc1cc(c3ccccc3c1)OCCCc1c(C(=O)O)n(C)c3c-2c(Cl)ccc13 [AZD5991] (first compound max 10 µM, 7x7, partner max 1 µM) | 0.687 | 0.202 | 0.362 | 0.27 | 0.308 | 1 | 0.227 | 0.228 | 0.153 | 0.787 | 0.344 | 0.556 | 0.717 | 0.238 | 0.782 | 0.881 | 0.6 | 0.427 | 0.293 | 0.33
11 | CC(=O)c1c(C)c2cnc(Nc3ccc(N4CCNCC4)cn3)nc2n(C2CCCC2)c1=O [Palbociclib] + Cn1cnc2c(F)c(Nc3ccc(Br)cc3Cl)c(C(=O)NOCCO)cc21 [Selumetinib] (first compound max 10 µM, 7x7, partner max 10 µM) | 0.71 | 0.414 | 0.218 | 0.427 | 0.457 | 0.448 | 0.199 | 0.277 | 0.056 | 0.261 | 0.334 | 0.567 | 0.599 | 0.275 | 0.658 | 0.768 | 0.297 | 0.383 | 0.336 | 0.5
12 | COc1cccc(OCCCN)c1-c1cc(Nc2cnc(C#N)cn2)n[nH]1 [Prexasertib] + C=CCn1c(=O)c2cnc(Nc3ccc(N4CCN(C)CC4)cc3)nc2n1-c1cccc(C(C)(C)O)n1 [AZD1775] (first compound max 1 µM, partner max 1 µM) | 1 | 0.925 | 0.561 | 0.814 | 0.86 | 0.967 | 0.739 | 0.738 | 0.715 | 0.968 | 0.609 | 0.995 | 0.921 | 0.651 | 0.786 | 1 | 0.834 | 0.966 | 1 | 0.92
13 | COc1cccc(OCCCN)c1-c1cc(Nc2cnc(C#N)cn2)n[nH]1 [Prexasertib] + CCc1c2c(nc3ccc(O)cc13)-c1cc3c(c(=O)n1C2)COC(=O)[C@]3(O)CC [SN-38] (first compound max 1 µM, 7x7, partner max 0.3 µM) | 1 | 0.954 | 0.937 | 0.571 | 0.884 | 0.972 | 0.936 | 0.767 | 0.894 | 0.953 | 0.836 | 1 | 0.961 | 0.836 | 0.883 | 0.949 | 0.787 | 0.972 | 1 | 0.932

Source: the supplement of paper PMC11061612
